Reference: ChEMBL document CHEMBL1201862, “PubChem BioAssay data set” (2004)
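Where inhibition never reached the appropriate level, the endpoint shown equals the highest concentration tested. Otherwise, values were interpolated linearly from a five-concentration, 48-hour dose response in 96-well plates. GI50 marks 50% less growth.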 Calls of active or inactive are those of the source. Rule as the data show it: active = GI50 up to about 1.1 µM and inactive = higher.

Legend:
Test in all cases: DTP human tumour cell line panel, 48 h
MCF7 = test system: MCF7
OVCAR-8 = test system: OVCAR-8
DMS-273 = test system: DMS-273
Hs-578T = test system: Hs-578T
SN12C = test system: SN12C
RPMI-8226 = test system: RPMI-8226
SF-268 = test system: SF-268
MOLT-4 = test system: MOLT-4
SR = test system: SR
M14 = test system: M14
CAKI-1 = test system: CAKI-1
DLD-1 = test system: DLD-1
DU-145 = test system: DU-145
HT-29 = test system: HT-29
NCI-H23 = test system: NCI-H23
SW-620 = test system: SW-620
HCT-116 = test system: HCT-116
786-0 = test system: 786-0
SK-MEL-2 = test system: SK-MEL-2
BT-549 = test system: BT-549
SK-MEL-5 = test system: SK-MEL-5
NCI/ADR-RES = test system: NCI/ADR-RES
SNB-75 = test system: SNB-75
SF-539 = test system: SF-539
SNB-19 = test system: SNB-19
OVCAR-4 = test system: OVCAR-4
A498 = test system: A498
NCI-H226 = test system: NCI-H226
A549 = test system: A549
OVCAR-3 = test system: OVCAR-3
CCRF-CEM = test system: CCRF-CEM
SK-MEL-28 = test system: SK-MEL-28
KM12 = test system: KM12
SNB-78 = test system: SNB-78
KM-20L2 = test system: KM-20L2
HL-60 = test system: HL-60
K562 = test system: K562
NCI-H522 = test system: NCI-H522
SK-OV-3 = test system: SK-OV-3
SF-295 = test system: SF-295
Malme-3M = test system: Malme-3M
NCI-H460 = test system: NCI-H460
M19-MEL = test system: M19-MEL
UACC-62 = test system: UACC-62
TK-10 = test system: TK-10
EKVX = test system: EKVX
LOX IMVI = test system: LOX IMVI
IGROV-1 = test system: IGROV-1
HOP-62 = test system: HOP-62
DMS-114 = test system: DMS-114
U-251 = test system: U-251
HOP-18 = test system: HOP-18
LXFL 529 = test system: LXFL 529
COLO 205 = test system: COLO 205
RXF 393 = test system: RXF 393
UO-31 = test system: UO-31
UACC-257 = test system: UACC-257
HCC 2998 = test system: HCC 2998
OVCAR-5 = test system: OVCAR-5
HOP-92 = test system: HOP-92
ACHN = test system: ACHN

Measured: GI50

COc1ccc2c(c1)-c1nn(CCCN(C)C)c3ccc([N+](=O)[O-])c(c13)N2
inactive: BT-549 1.23 µM
active: MCF7 0.239 µM | OVCAR-8 0.121 µM | DMS-273 0.161 µM | Hs-578T 0.48 µM | SN12C 0.103 µM | RPMI-8226 0.201 µM | SF-268 0.207 µM | MOLT-4 0.106 µM | SR 0.13 µM | M14 0.361 µM | CAKI-1 0.261 µM | DLD-1 0.181 µM | DU-145 0.254 µM | HT-29 0.102 µM | NCI-H23 0.398 µM | SW-620 0.0719 µM | HCT-116 0.0787 µM | 786-0 0.0991 µM | SK-MEL-2 0.676 µM | SK-MEL-5 0.33 µM | NCI/ADR-RES 0.124 µM

COc1ccc2[nH]c3c4c(c5cc(C(C)(C)C)ccc5c3c2c1)C(=O)N(c1ccccc1)C4=O
inactive: SNB-75 57 µM | SF-539 21.7 µM | SNB-19 > 100 µM | OVCAR-8 44.7 µM | OVCAR-4 > 100 µM | A498 24.9 µM | NCI-H226 > 100 µM | A549 > 100 µM | OVCAR-3 > 100 µM | CCRF-CEM > 10 µM | SK-MEL-28 > 100 µM | KM12 > 100 µM | SNB-78 > 100 µM | KM-20L2 > 100 µM | HL-60 > 100 µM | K562 > 100 µM | RPMI-8226 > 100 µM | NCI-H522 > 100 µM | SK-OV-3 > 100 µM | SF-295 > 100 µM | SF-268 > 100 µM | MOLT-4 > 100 µM | Malme-3M > 100 µM | NCI-H460 > 100 µM | M19-MEL > 100 µM | M14 54.3 µM | CAKI-1 > 100 µM | UACC-62 > 100 µM | DLD-1 13.4 µM | TK-10 60.5 µM | HT-29 > 100 µM | NCI-H23 > 100 µM | SW-620 > 100 µM | EKVX > 100 µM | LOX IMVI > 100 µM | IGROV-1 > 100 µM | HOP-62 > 100 µM | DMS-114 > 100 µM | U-251 27.7 µM | HCT-116 > 100 µM | HOP-18 34.8 µM | LXFL 529 > 100 µM | 786-0 > 100 µM | COLO 205 > 100 µM | RXF 393 > 100 µM | UO-31 > 100 µM | SK-MEL-2 > 100 µM | UACC-257 > 100 µM | SK-MEL-5 > 100 µM | HCC 2998 21.3 µM | OVCAR-5 > 100 µM

CCN(CC)CC/N=C\c1c(O)c(O)c(C(C)C)c2cc(C)c(-c3c(C)cc4c(C(C)C)c(O)c(O)c(/C=N/CCN(CC)CC)c4c3O)c(O)c12
active: OVCAR-4 0.959 µM | CCRF-CEM 0.354 µM | KM12 1.1 µM | SNB-78 0.716 µM | K562 1.02 µM | NCI-H522 0.959 µM
inactive: SNB-75 5.31 µM | SF-539 2.2 µM | SNB-19 1.65 µM | OVCAR-3 1.59 µM | SK-MEL-28 3.17 µM | RPMI-8226 1.53 µM | SK-OV-3 3.46 µM | SF-295 1.58 µM | SF-268 4 µM | MOLT-4 1.29 µM | Malme-3M 4.16 µM | HOP-92 2.38 µM | NCI-H460 2.32 µM | M19-MEL 3.45 µM | M14 1.83 µM | UACC-62 2.55 µM | ACHN 2.66 µM | HT-29 1.77 µM | NCI-H23 2.95 µM | IGROV-1 2.74 µM | HOP-62 2.65 µM | DMS-114 1.58 µM | HCT-116 1.82 µM | LXFL 529 1.46 µM | COLO 205 3.54 µM | RXF 393 1.33 µM | UO-31 2.93 µM | SK-MEL-2 2.3 µM | UACC-257 5.53 µM | HCC 2998 2.11 µM
